Several values for one entry are separate records, joined by “and”; a condition that tells them apart may be missing. Equal values may be shown once.
Experiments:
silverleaf whiteflies [1] = test: Test Example 1: spray test on cabbage seedlings infested with silverleaf whiteflies; type: in vivo; conditions: 50 ppm, total of adults and larvae on cabbage seedlings; for Number of surviving insects/pot after 8 days: 8 days after spray treatment; for Number of surviving insects/pot before: just before treatment
Procedure: (§1) Cabbage seedlings planted in 3 ounces plastic cup were placed in a net cage containing many living silverleaf whiteflies for 24 hours, so that many silverleaf whiteflies became parasitic on the cabbage seedlings. A designated amount of each of pyriproxyfen EC (commercial name, Lano emulsifiable concentrate : produced by Sumitomo Chemical Co., Ltd.), chlothianidine EC (emulsifiable concentrate prepared by mixing 10 parts of chlothianidine, 8 parts of polyoxyethylenealkyl aryl ether, 2 parts of sodium alkylarylsulfonate and 80 parts of xylene), and the present invention composition prepared according to formulation example 1 was diluted with water, and then sprayed over the cabbage seedlings with a spray gun. The number of silverleaf whiteflies (i.e., the total number of adults and larvae) surviving on the cabbage seedlings was examined just before and after 8 days from the treatment.

silverleaf whiteflies [2] = test: Test Example 2: spray test on cabbage seedlings infested with silverleaf whiteflies (10:1 and 1:10 mixtures); type: in vivo; conditions: 10 ppm; just before treatment; total of adults and larvae on cabbage seedlings
Procedure: as §1, with “pyriproxyfen EC.” for “pyriproxyfen EC”, “emulsifiable concentrate:” for “emulsifiable concentrate :”, “prepared by mixing the pyriproxyfen EC with chlothianidine EC at 10:1 and 1:10 by weight” for “prepared according to formulation example 1”

SMILES | Number of surviving insects/pot after 8 days (silverleaf whiteflies [1]) [insects/pot] | Number of surviving insects/pot before (silverleaf whiteflies [1]) [insects/pot] | Number of surviving insects/pot before (silverleaf whiteflies [2])
CC(COc1ccc(Oc2ccccc2)cc1)Oc1ccccn1 (centres unmarked) [pyriproxyfen, 4-phenoxyphenyl 2-(2-pyridyloxy)propyl ether] | 21 | 65 | 81 insects/pot and 62 insects/pot
CN/C(=N\[N+](=O)[O-])NCc1cnc(Cl)s1 [chlothianidine, (E)-1-(2-chlorothiazol-5-ylmethyl)-3-methyl-2-nitroguanidine] | 70 | 66 | –
